Source: patent publication US20260317319A1, “NOVEL ERGOLINES AND METHODS OF TREATING MOOD DISORDERS” (Gilgamesh Pharma Inc., priority 2023, published 2026)
Read-outs that look alike come from different tables or passages of the source.

Columns and labels:
[1] = target: T1, 5-HT2B receptor (Homo sapiens, UniProt P41595); assay: 5-HT2B receptor radioligand binding ([3H]LSD)
T1 construct: expressed in transfected cells; host or cells: HEK293, stably transfected

[2] = target: T1, 5-HT2B receptor; assay: cell-based; format: cell-based; details: Ca2+ flux; for 5-HT2B % Act @ Max Dose / Emax: HEK293, max dose; for Emax: HEK293, agonist, read-out: 5-HT2B % Act @ Max Dose
Procedure, shortened: (§1)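 FLIPR Tetra fluorescence read-out of calcium flux after compound addition. Receptor-expressing stable lines were used (HEK293 for 2A/2B; CHO with Gα15 for 1A), dye-loaded with Fluo-4 Direct and 2.5 mM final probenecid, 50 min at 37 °C.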

[3] = target: T2, 5-HT2C receptor (Homo sapiens, UniProt P28335); assay: cell-based; details: for Emax: read-out: 5-HT2C % Act @ Max Dose
T2 sequence (P28335 33-458): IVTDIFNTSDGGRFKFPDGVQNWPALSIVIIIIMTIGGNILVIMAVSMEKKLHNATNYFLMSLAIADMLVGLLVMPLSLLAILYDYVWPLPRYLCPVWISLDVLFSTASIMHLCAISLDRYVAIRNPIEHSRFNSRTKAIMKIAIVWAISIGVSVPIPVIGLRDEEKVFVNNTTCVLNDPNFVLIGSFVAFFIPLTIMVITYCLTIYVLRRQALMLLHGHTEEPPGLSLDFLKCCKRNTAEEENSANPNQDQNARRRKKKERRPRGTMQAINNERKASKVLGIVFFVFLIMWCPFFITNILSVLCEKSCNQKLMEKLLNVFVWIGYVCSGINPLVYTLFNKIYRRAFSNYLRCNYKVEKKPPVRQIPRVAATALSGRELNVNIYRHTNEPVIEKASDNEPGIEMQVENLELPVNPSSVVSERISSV

[4] = test system: C57BL/6 mice; assay: Automated mouse head twitch response (HTR) assay (video tracking); format: in vivo; details: sc; for # HTR/20 min at Most Efficacious Dose: 20 min recording, at each compound's most efficacious dose (35*, 43*, 44*: suppressed below vehicle 14.5, dose is that of least suppression); for # HTR/20 min at Most Efficacious Dose / Peak HTR/min at Most Efficacious Dose: mean; for Most Efficacious Dose for Peak HTR/min: dose giving highest peak HTR/min (35*, 43*, 44*: dose that resulted in the least suppression); for Most Efficacious Dose for # HTR/20 min: dose giving most HTR/20 min (35*, 43*, 44*: dose that resulted in the least suppression); for Peak HTR/min at Most Efficacious Dose: rate over 2-min bins, at each compound's most efficacious dose (35*, 43*, 44*: suppressed below vehicle 1.62, dose is that of least suppression)
Description: Disclosed compounds were tested for their ability to induce a head twitch response (HTR) in mice using an automated video tracking procedure, with the results summarized in Table 8 and FIG. 4.
Animals. Adult male C57BL/6 mice aged 8-10 weeks (Jackson Labs, Bar Harbor, ME; body weight 18-25 g) were used in this experiment. Animals were group housed under environmentally controlled temperatures and 12-hour light/dark cycles (lights on between 06:00-18:00 h), with ad libitum food and water. Mice were habituated to the facility for at least 5 days prior to testing. All animal procedures were approved by the local IACUC and conducted in accordance with the NIH Guide for the Care and Use of Laboratory Animals.
Procedure. Mice were administered one dose of the drug and immediately placed into a small open field for behavioral observation. High-speed video of animals' behavior was captured continuously for 20 min. Video recordings were imported into an image processing software, which detects multiple points of interest on each animal's body, including the left and right ear. HTR events were defined as periodic deviations of ear locations from temporally averaged ear locations. Predefined thresholds for magnitude and frequency of location deviations were used to filter HTR events from random head movements. The method was validated by comparing detected events with manual (human) observations and found to have an accuracy >95%. The total number of HTR events counted during the 20-min recording and the rate in HTR/min calculated over 2-min bins were determined for each animal at each dose.
Statistical Analysis. The data points shown are the mean±standard error of the mean (SEM).

[5] = in vitro; format: in vitro ADME, human; details: HLM 0.50 mg/mL, NADPH 1 mM, 1 μM compound, pH 7.4, 37° C., 60 min
[6] = target: T3, 5-HT2A receptor (Homo sapiens, UniProt P28223); assay: cell-based; format: cell-based; details: for 5-HT2A Arrestin % Act @ Max Dose / Emax: max dose; for Emax: read-out: 5-HT2A Arrestin % Act @ Max Dose
Procedure, shortened: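 PathHunter β-arrestin recruitment (enzyme fragment complementation): 5-HT2A fused to ProLink donor in cells co-expressing β-arrestin–β-galactosidase acceptor, seeded and held at 37° C before testing. Chemiluminescent read-out; agonist % activity = (sample RLU − vehicle)/(max control ligand − vehicle) × 100.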

[7] = target: T4, 5-HT1A receptor (Homo sapiens, UniProt P08908); assay: cell-based; details: agonist, Ca2+ flux; for Emax: CHO, read-out: 5-HT1A % Act @ Max Dose
T4 construct: expressed in transfected cells; host or cells: CHO cells, stably transfected
T4 sequence (P08908 1-422): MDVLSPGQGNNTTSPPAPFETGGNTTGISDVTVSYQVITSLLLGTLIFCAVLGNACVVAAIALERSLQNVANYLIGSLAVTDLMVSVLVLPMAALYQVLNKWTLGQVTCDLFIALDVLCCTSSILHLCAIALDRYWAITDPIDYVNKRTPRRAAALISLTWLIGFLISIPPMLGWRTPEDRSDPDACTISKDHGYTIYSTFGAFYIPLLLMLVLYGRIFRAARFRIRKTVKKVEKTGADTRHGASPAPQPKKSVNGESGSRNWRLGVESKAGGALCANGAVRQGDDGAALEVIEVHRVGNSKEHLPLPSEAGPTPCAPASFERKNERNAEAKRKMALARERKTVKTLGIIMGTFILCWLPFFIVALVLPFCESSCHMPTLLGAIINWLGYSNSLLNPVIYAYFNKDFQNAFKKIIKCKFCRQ
Procedure, shortened: as §1

[8] = target: T3, 5-HT2A receptor; assay: biochemical; format: binding; parameters: expressed in transfected cells; host or cells: HEK293, stably transfected
Procedure, shortened: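 Binding affinity comes from a [^3H]ketanserin radioligand assay run under literature-adapted conditions.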

[9] = target: T5, 5-HT1B receptor (Homo sapiens, UniProt P28222); assay: cAMP accumulation functional assay at 5-HT1B; format: cell-based; details: agonist, cAMP accumulation; for Emax: read-out: 5-HT1B % Act @ Max Dose
T5 construct: expressed in transfected cells
Procedure, shortened: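 Agonist activity measured as cAMP accumulation in cells stably transfected with human 5-HT1B. Cells incubated 60 min at RT, then detection reagent added for a further 60 min at RT before plate reading.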

[10] = target: T3, 5-HT2A receptor; assay: cell-based; format: cell-based; parameters: expressed in transfected cells; host or cells: HEK293, stably transfected; details: for Emax: HEK293, agonist, read-out: 5-HT2A % Act @ Max Dose
Procedure, shortened: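 Agonist activity measured by FLIPR Ca2+ flux in stably transfected cells: HEK293 for 5-HT2A and 5-HT2B, CHO co-expressing Gα15 for 5-HT1A. Cells loaded with Fluo-4 Direct dye plus probenecid (2.5 mM final) for 50 min at 37 °C, 5% CO2; compounds added and fluorescence read on FLIPR Tetra.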

[11] = in vitro; format: in vitro ADME, mouse; details: MLM (male CD-1) 0.50 mg/mL, NADPH 1 mM, 1 μM compound, pH 7.4, 37° C., 60 min
Text: MLM Stability Pooled MLM from male CD-1 mice (BIOIVT M00501) were used.

[12] = in vitro; format: in vitro ADME, rat; details: RLM (male Sprague-Dawley) 0.50 mg/mL, NADPH 1 mM, 1 μM compound, pH 7.4, 37° C., 60 min
Text: RLM Stability Pooled RLM from male Sprague-Dawley rats (Xenotech R1000) were used.

[13] = agonist, Ca2+ flux, Eurofins DiscoverX protocol, max dose
[14] = agonist, beta-arrestin recruitment
[15] = agonist, Ca2+ flux, Eurofins DiscoverX protocol, read-out: 5-HT2C EC50
[16] = agonist, beta-arrestin recruitment, PathHunter, read-out: 5-HT2A Arrestin EC50

T3 sequence (P28223 whole entry, the tested form may be a part): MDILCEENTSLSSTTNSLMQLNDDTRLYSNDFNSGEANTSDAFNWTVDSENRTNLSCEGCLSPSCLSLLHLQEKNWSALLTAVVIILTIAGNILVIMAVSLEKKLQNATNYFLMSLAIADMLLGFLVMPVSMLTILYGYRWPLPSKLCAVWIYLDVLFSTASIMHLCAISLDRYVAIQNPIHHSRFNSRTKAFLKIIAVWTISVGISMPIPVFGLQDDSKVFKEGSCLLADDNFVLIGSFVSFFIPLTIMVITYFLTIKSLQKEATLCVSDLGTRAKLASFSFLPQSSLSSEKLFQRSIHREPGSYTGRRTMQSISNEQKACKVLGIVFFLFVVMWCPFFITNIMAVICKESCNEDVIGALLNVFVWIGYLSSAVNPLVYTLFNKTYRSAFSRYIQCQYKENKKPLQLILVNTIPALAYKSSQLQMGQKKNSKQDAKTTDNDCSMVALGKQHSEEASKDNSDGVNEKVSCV
T1 sequence (P41595 whole entry): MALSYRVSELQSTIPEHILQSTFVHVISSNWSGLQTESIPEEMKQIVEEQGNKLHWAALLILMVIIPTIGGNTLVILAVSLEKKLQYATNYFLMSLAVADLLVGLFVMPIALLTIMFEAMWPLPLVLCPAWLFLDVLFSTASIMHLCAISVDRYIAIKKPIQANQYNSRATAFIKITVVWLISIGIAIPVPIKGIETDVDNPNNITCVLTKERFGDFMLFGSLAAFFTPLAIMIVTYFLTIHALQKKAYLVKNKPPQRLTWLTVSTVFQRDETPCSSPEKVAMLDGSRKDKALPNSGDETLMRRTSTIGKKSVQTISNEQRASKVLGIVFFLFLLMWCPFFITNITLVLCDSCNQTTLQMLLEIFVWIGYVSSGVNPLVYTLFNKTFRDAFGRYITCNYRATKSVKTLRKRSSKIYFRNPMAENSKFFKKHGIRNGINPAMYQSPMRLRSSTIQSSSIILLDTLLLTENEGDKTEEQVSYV
T5 sequence (P28222 whole entry): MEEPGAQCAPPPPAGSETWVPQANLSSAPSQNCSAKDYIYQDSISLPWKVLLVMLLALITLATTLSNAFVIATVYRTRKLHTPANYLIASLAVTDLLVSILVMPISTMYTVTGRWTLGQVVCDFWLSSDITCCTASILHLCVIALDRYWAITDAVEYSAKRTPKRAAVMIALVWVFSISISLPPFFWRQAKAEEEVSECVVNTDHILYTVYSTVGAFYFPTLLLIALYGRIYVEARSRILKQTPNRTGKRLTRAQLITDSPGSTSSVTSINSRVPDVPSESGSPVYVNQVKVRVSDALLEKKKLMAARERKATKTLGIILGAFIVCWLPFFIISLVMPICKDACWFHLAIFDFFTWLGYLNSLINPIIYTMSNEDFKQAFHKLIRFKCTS

| SMILES | 5-HT2B % Act @ Max Dose ([2]; agonist) [%] | # HTR/20 min at Most Efficacious Dose [4] [HTR/20 min] | Most Efficacious Dose for Peak HTR/min [4] | Most Efficacious Dose for # HTR/20 min [4] | Peak HTR/min at Most Efficacious Dose [4] [HTR/min] | Intrinsic clearance (Clint) [5] [µL/min/mg] | half-life (t1/2) [5] [h] | 5-HT2A Arrestin % Act @ Max Dose [6, 14] [%] | Ki ([1]; read-out: 5-HT2B Receptor Ki) [nM] | Emax [2] [%] | Emax [3, 13] [%] | EC50 [3, 15] [nM] | Emax ([9]; max dose) [%] | Emax ([10]; Ca2+ flux, HEK293, max dose) [%] | EC50 [6, 16] [nM] | Emax [6, 14] [%] | Emax ([7]; CHO cells with Gα15, max dose) [%] | further results |
| --- | --- | --- | --- | --- | --- | --- | --- | --- | --- | --- | --- | --- | --- | --- | --- | --- | --- | --- |
| CCN(CC)C(=O)[C@@H]1C=C2c3cccc4[nH]c(Br)c(c34)C[C@H]2N(C)C1 [Compound 35, (6aR,9R)-5-bromo-N,N-diethyl-7-methyl-4,6,6a,7,8,9-hexahydroindolo[4,3-fg]quinoline-9-carboxamide] | -0.13 | 2.38 | (0.1) mg/kg, sc | (0.1) mg/kg, sc | 0.56 | 57.4 | 0.403 | 30.94 |  |  |  |  |  |  |  |  |  | Ki [1]: 4.96 nM; EC50 [3]: > 10000 nM; 5-HT2C % Act @ Max Dose [3, 13]: 0%; EC50 [6]: 1.67 nM; EC50 ([7]; CHO cells with Gα15): > 100000 nM; 5-HT1A % Act @ Max Dose ([7]; CHO cells with Gα15, max dose): 11.94% |
| CCN(CC)C(=O)[C@@H]1C=C2c3cccc4[nH]c(Br)c(c34)C[C@H]2N(CCC(F)(F)F)C1 [Compound 42, (6aR,9R)-5-bromo-N,N-diethyl-7-(3,3,3-trifluoropropyl)-4,6,6a,7,8,9-hexahydroindolo[4,3-fg]quinoline-9-carboxamide] |  |  |  |  |  |  |  |  | 238 | 2.58 | 17.9 | > 10000 | 33.1 | 8.29 | 16 | 49.4 | 9.13 | potency in receptor binding ([8]; radioligand binding, 5-HT2A): potent binding to 5-HT2A; agonist activity at any of the serotonin receptors tested ([10]; functional assays at 5-HT2A, 2B, 2C, 1A, 1B): no agonist activity at any of the receptors tested |
| CC[C@@H](C)NC(=O)[C@@H]1C=C2c3cccc4[nH]c(Br)c(c34)C[C@H]2N(C)C1 [Compound 43, (6aR,9R)-5-bromo-N—((R)-sec-butyl)-7-methyl-4,6,6a,7,8,9-hexahydroindolo[4,3-fg]quinoline-9-carboxamide] |  | 6.5 |  | (0.1) mg/kg, sc | 1 |  |  |  | 9.46 | 1 | 3.13 | > 10000 | 83.8 | 39.3 | 2.23 | 51.8 | 6.3 |  |
| CCC(CC)NC(=O)[C@@H]1C=C2c3cccc4[nH]c(Br)c(c34)C[C@H]2N(C)C1 [Compound 44, (6aR,9R)-5-bromo-N-(pentan-3-yl)-7-methyl-4,6,6a,7,8,9-hexahydroindolo[4,3-fg]quinoline-9-carboxamide] |  | 4.38 | (3.2) mg/kg, sc | (1) mg/kg, sc | 0.93 |  |  |  | 9.3 | 15.7 | 40 | 4930 | 68.5 | 29.9 | 1.71 | 40.7 | 16.6 |  |
| CCC[C@@H](C)NC(=O)[C@@H]1C=C2c3cccc4[nH]c(Br)c(c34)C[C@H]2N(C)C1 [Compound 45, (6aR,9R)-5-bromo-N—((R)-pentan-2-yl)-7-methyl-4,6,6a,7,8,9-hexahydroindolo[4,3-fg]quinoline-9-carboxamide] |  |  |  |  |  |  |  |  | 3.65 | -0.31 | 22.1 | > 10000 | 87.1 | 22.3 | 4.28 | 45.3 | 12.5 |  |
| CCN(CC)C(=O)[C@@H]1C=C2c3cccc4[nH]cc(c34)C[C@H]2NC1 [Compound 83] | 69.27 | 29.625 | (10) mg/kg, sc | (3.2) mg/kg, sc | 3.625 | <9.6 | >2.42 | 88.78 |  |  |  |  |  |  | 2.71 |  |  | Ki ([1]; [3H]LSD 2 nM, HEK293 stable cell line, 1 h, 25 °C, read-out: 5-HT2B Receptor Ki): 115 nM; EC50 ([2]; agonist, HEK293): 22.5 nM; Ki ([8]; [3H]ketanserin 1 nM, HEK293 stable cell line, 1 h, 25 °C): 5.65 nM; EC50 [9]: 27.4 nM; 5-HT1B % Act @ Max Dose ([9]; max dose): 88.07%; EC50 ([10]; agonist, Ca2+ flux, HEK293): 1.7 nM; 5-HT2A % Act @ Max Dose ([10]; agonist, Ca2+ flux, HEK293, max dose): 107.11%; Intrinsic clearance (Clint) [11]: 12.6 µL/min/mg; half-life (t1/2) [11]: 1.835 h; Intrinsic clearance (Clint) [12]: 15.3 µL/min/mg; half-life (t1/2) [12]: 1.51 h |
